# “Also recorded” adds a separate entry of the source.
# Experiments:
# [1] = system: freshly isolated crypt cells; test: ATP-induced Ca2+ rise in freshly isolated crypt cells (Fura-2); format: cell-based, mouse; details: low concentrations of niclosamide
# Experimental: All methods were carried out as specified in the previous examples. For the measurements of Ca^2+, crypts were isolated from inverted proximal mouse colons using Ca^2+-free Ringer solution with 1 mM DTT and 1 μM indomethacin for 20 min at 37° C. Crypts were loaded with 10 μM Fura2-AM (Biotum, USA) and 1 mg/ml BSA (Sigma-Aldrich) in ringer solution for 1 h at RT. Intracellular Ca^2+ was measured by loading crypts with […] Fura-2/AM and 0.02% Pluronic F-127 (Life Technologies, Germany) in ringer solution for 1 h at room temperature. Fluorescence was detected in cells perfused with Ringer's solution at 37° C. using an inverted microscope (Axiovert S100, Zeiss, Germany) and a high-speed polychromator system (VisiChrome, Germany). Fura-2 was excited at 340/380 nm, and emission was recorded between 470 and 550 nm using a CoolSnap camera (CoolSnap HQ, Visitron).
# It was examined whether niclosamide inhibits intestinal mucus secretion. To this end, niclosamide was added to the perfusate. […] The present inventors detected reduced Ca^2+ increase upon ATP-stimulation of freshly isolated crypt cells from Vil1-Cre TMEM16F^flox/flox mice. […] Increase in FM4-64 fluorescence in the plasma membrane is a marker for membrane exocytosis. The present inventors detected that ATP-stimulation (but not cholinergic stimulation) of HEK293 cells expressing TMEM16F induced FM4-64 fluorescence, i.e. exocytosis.
# [2] = system: Calu3 human airway epithelial cells; test: IL-13 induced MUC5AC expression in Calu3 cells; format: cell-based; details: IL-13 stimulation
# Experimental: (§1) Mouse models were performed according to the previous example. For investigating mucus, IL-8 release, and leukocytes, tissues were fixed using 4% paraformaldehyde (PFA), 0.2% picric acid and 3.4% sucrose in PBS and washed in methanol before embedding in paraffin. Mucus was analyzed using standard Periodic acid-Schiff (PAS) or alcian blue staining. MUC5AC was stained using anti-MUC5AC mouse antibody (1:200, Abcam, ab3649) and a secondary antibody conjugated with Alexa488 (Life Technologies, A-21206). Nuclei were stained with Hoe33342 (0.1 μg/ml PBS, Aplichem, Darmstadt, Germany). Quantikine ELISA kits (R&D systems) were used to measure secretion of the cytokine IL-8 by Calu3 cells.
# (§2) Calu3 airway epithelial cells were exposed to LPS for 48 hrs and the release of the neutrophil attractor interleukin 8 (IL-8) was measured. […] Upon stimulation with the Th2 cytokine IL-13, Calu3 cells produced MUC5AC. […] Taken together, airway epithelial knockout of TMEM16A caused a defect in mucus secretion, while mucus production was retained (FIG. 16C).
# [3] = system: Calu3 airway epithelial cells; test: LPS-induced IL-8 release by Calu3 cells (ELISA); format: cell-based, human; details: Calu3 cells exposed to LPS for 48 hrs
# Experimental: as §1, §2
# colon = test: Niclosamide applied in vivo (ip or gavage), then colon perfusion and PAS staining; parameters: species or system mouse; details: for ATP-induced release of mucus: three days before perfusion, 100 μM ATP
# Experimental: FIG. 18: Effect of niclosamide on intestinal mucus release. • A) Acute mucus secretion in excised wt colon activated by methacholine or ATP, respectively, and inhibition by acute perfusion with niclosamide (niclosamide; 10 μM). • B-D) Effect of intraperitoneal injection of niclosamide (20 mg/kg/day) on PAS staining (B,C) and acute mucus discharge induced by perfusion with 100 μM ATP (D). • E-G) Effect of application of niclosamide by gavage (20 mg/kg/day) on PAS staining (E,F) and acute mucus discharge induced by perfusion with 100 μM ATP (G). Mean±SEM; #significant difference when compared to -niclosamide (unpaired t-test); (n) number of perfused colons and PAS stainings analyzed, respectively. Bars indicate 50 μm.
# It was examined whether niclosamide inhibits intestinal mucus secretion. To this end, niclosamide was added to the perfusate. […] Niclosamide was applied in vivo by intraperitoneal (ip) injection, or was applied orally by gavage three days before intestinal perfusion. […] TMEM16F plays a crucial role for intracellular Ca^2+ signaling. The present inventors detected reduced Ca^2+ increase upon ATP-stimulation of freshly isolated crypt cells from Vil1-Cre TMEM16F^flox/flox mice. In contrast, CCH-induced Ca^2+ rise was not affected. […] Increase in FM4-64 fluorescence in the plasma membrane is a marker for membrane exocytosis. The present inventors detected that ATP-stimulation (but not cholinergic stimulation) of HEK293 cells expressing TMEM16F induced FM4-64 fluorescence, i.e. exocytosis.
# [4] = system: airways of OVA-sensitized mice; test: OVA-induced allergic airway inflammation in mice (alcian blue mucus staining, airway cross section, CD45 infiltration); format: in vivo, mouse
# Experimental: Intestinal sections were collected for histological analyses. Mouse airways were fixed by transcardial fixation and were embedded in paraffin or were used as cryosections. For paraffin sections, tissues were fixed in 4% paraformaldehyde (PFA), 0.2% picric acid and 3.4% sucrose in PBS, and were washed in methanol before embedding in paraffin. Sections were stained according to standard Periodic acid-Schiff (PAS) or Alcian Blue methods and assessed by light microscopy.
# as §1
# All methods were performed as described in the previous examples. Mice were treated with ovalbumin (OVA) to induce an allergic reaction which leads to airway inflammation. […] After allergization with OVA and development of airway inflammation, excessive mucus production and inflammatory infiltration with immune cells is observed. Activation of cholinergic receptors using the muscarinic agonist carbachol (CCH) results in constriction of the airways and secretion of mucus (FIG. 5A-C). 3-day treatment using niclosamide reduced the CCH-induced constriction of the airways (FIG. 1). Furthermore, mucus secretion and inflammatory infiltrates were reduced.
# OVA-induced allergic airway inflammation in mice caused pronounced airway goblet cell metaplasia. […] NFA is a well know inhibitor of Ca^2+ activated Cl^− channels and inhibits TMEM16A. The two main TMEM16 paralogs expressed in airway epithelial and smooth muscle cells, TMEM16A and TMEM16F, were expressed in HEK293 cells and the whole cell currents upon activation by the Ca^2+ ionophore ionomycin (Iono) were measured. […] Novel therapeutic strategies for the treatment of inflammatory airway diseases such as CF may therefore consider the use of inhibitors of TMEM16.
# The present inventors disclose that airway epithelial knockout of TMEM16A causes a defect in basal, i.e. ATP-mediated mucus secretion. […] Mucus synthesis under inflammatory (OVA) conditions and mucus release upon cholinergic stimulation, however, were not compromised (FIG. 16C). […] Because basal mucus production still occurs in the absence of TMEM16A, other TMEM16 paralogs may also be in charge of mucus synthesis.
smiles,measurement,setting,value
"O=C(Nc1ccc([N+](=O)[O-])cc1Cl)c1cc(Cl)ccc1O [niclosamide, 5-chloro-N-(2-chloro-4-nitrophenyl)-2-hydroxybenzamide]",ATP-induced Ca2+ rise,[1],potently inhibited
same,Muc5AC-expression,[2],largely reduced
same,IL-8 release,[3],clearly inhibited
same,ATP-induced release of mucus,colon; intraperitoneal injection 20 mg/kg/day,completely inhibited
same,mucus accumulation in goblet cells (PAS staining),colon; ip or oral niclosamide,did not accumulate
same,ATP-induced release of mucus,colon; oral by gavage 20 mg/kg/day,completely inhibited
same,inflammatory infiltrates,"[4]; OVA-allergized mice, 3-day treatment",reduced
same,mucus secretion,"[4]; OVA-allergized mice, 3-day treatment, CCH",reduced
same,CCH-induced constriction of the airways,"[4]; OVA-allergized mice, 3-day treatment, carbachol (CCH)",reduces
same,CCH-induced airway contraction,"[4]; OVA-sensitized TMEM16A+/+ and TMEM16A−/− mice, intratracheal for three days before CCH",strongly attenuated
same,mucus synthesis / production,"[4]; OVA-sensitized wt (TMEM16A+/+) and TMEM16A−/− mice, intratracheal for three days before CCH",strongly reduced; also recorded: strongly attenuated
same,OVA-induced mucus production,"[4]; wt mice, tracheal instillation, niflumic acid 20 μM or niclosamide 5 μM",strongly reduced; also recorded: inhibited mucus production

# Source: patent US20210283110A1, “COMPOUND FOR USE IN THE TREATMENT OF A DISEASE CHARACTERIZED BY DYSREGULATED MUCUS PRODUCTION AND/OR SECRETION” (UNIVERSITÄT REGENSBURG, priority 2018, published 2021)
